Our source for the EC50 values is BindingDB's records for doi:10.1016/j.bmc.2016.05.005 (University of Catania, 2016).

Test [1] can be described thus: Antagonist activity at DOR in CD1 mouse vas deferens assessed as pEC50 for DPDPE-induced inhibition of EFS-evoked contractions at 1 uM incubated for 60 mins.
The nature of test [2]: Agonist activity at MOR in Dunkin-Hartley guinea pig ileum assessed as inhibition of EFS-induced contractions incubated for 60 mins.

The term EC50 denotes the concentration giving half of the maximal effect. Take `C[C@H]1[C@H]2Cc3ccc(O)cc3[C@]1(C)CCN2CCC(=O)Nc1ccccc1`: in test [1], the EC50 is 126 µM. Take `C[C@H]1[C@H]2Cc3ccc(O)cc3[C@]1(C)CCN2CCC(=O)Nc1cccc2ccccc12`: the EC50 in test [1] is 7.94 µM; in test [2] it was 50100 µM.
